Reference: ChEMBL document CHEMBL1134456, “Design, synthesis and pharmacological characterization of a potent radioiodinated and photoactivatable peptidic oxytocin antagonist” (J Med Chem, 2001)
Starred links: 1 amine or outer side, 2 acyl side, 3 side chain; linkers in the order of their positions; H or OH if unused. Positions of bridges follow the written chain, without caps; N, C: chain ends. Non-standard residues stand in square brackets, D forms with d. Residues, ends and D or L forms follow the SMILES beside them. X1 = [N-]=[N+]=Nc1ccc(C[C@H](N[*:1])C(=O)[*:2])cc1I; X2 = O=C(CC1(S[*:2])CCCCC1)[*:1]; Orn = NCCC[C@H](N)C(=O)O

Experiments:
Oxytocin receptor [1] = molecular target: T1, Oxytocin receptor (Homo sapiens, UniProt P30559); experiment: Binding affinity towards OT receptor in CHO cells expressing the human OT receptor; type: cell-based
T1 sequence (P30559 whole entry): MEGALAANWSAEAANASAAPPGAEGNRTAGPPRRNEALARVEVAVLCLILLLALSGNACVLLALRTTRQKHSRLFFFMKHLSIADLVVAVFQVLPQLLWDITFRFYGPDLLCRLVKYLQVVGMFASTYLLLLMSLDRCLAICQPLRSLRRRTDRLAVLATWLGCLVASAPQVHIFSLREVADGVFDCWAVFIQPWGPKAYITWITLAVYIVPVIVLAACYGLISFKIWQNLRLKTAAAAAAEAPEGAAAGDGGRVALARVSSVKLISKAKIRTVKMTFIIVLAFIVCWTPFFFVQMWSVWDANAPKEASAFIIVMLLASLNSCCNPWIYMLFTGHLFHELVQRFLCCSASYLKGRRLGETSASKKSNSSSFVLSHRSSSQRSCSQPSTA

Oxytocin receptor [2] = molecular target: T1, Oxytocin receptor; experiment: Ability to inhibit OT-induced inositol phosphate accumulation was determined in CHO cells expressing the human OT receptor; type: functional, cell-based
Oxytocin receptor [3] = molecular target: T1, Oxytocin receptor; experiment: Dissociation constant value for human OT-receptor

Ki (Oxytocin receptor [1]; cho) [nM]	IC50 (Oxytocin receptor [2]) [nM]	Kd (Oxytocin receptor [3]) [nM]	Ki (Oxytocin receptor [1]) [nM]	SMILES
2.3				CC[C@H](C)[C@@H]1NC(=O)[C@H](Cc2ccc(OC)cc2)NC(=O)CC2(CCCCC2)SSC[C@@H](C(=O)NCC(=O)N[C@@H](CCCN)C(=O)N[C@@H](Cc2ccc(N=[N+]=[N-])c(I)c2)C(N)=O)NC(=O)[C@H](CC(N)=O)NC(=O)[C@H]([C@@H](C)O)NC1=O (Y(Me)ITNCG[Orn][X1]-NH2; linker N-5 via X2)
0.3	0.32	0.25		CC[C@H](C)[C@@H]1NC(=O)[C@H](Cc2ccc(OC)cc2)NC(=O)CC2(CCCCC2)SSC[C@@H](C(=O)N2CCC[C@H]2C(=O)N[C@@H](CCCN)C(=O)N[C@@H](Cc2ccc(N=[N+]=[N-])c(I)c2)C(N)=O)NC(=O)[C@H](CC(N)=O)NC(=O)[C@H]([C@@H](C)O)NC1=O (Y(Me)ITNCP[Orn][X1]-NH2; linker N-5 via X2)
18				CC[C@H](C)[C@@H]1NC(=O)[C@H](Cc2ccc(O)cc2)NC(=O)CC2(CCCCC2)SSC[C@@H](C(=O)NCC(=O)N[C@@H](CCCN)C(=O)N[C@@H](Cc2ccc(N=[N+]=[N-])c(I)c2)C(N)=O)NC(=O)[C@H](CC(N)=O)NC(=O)[C@H]([C@@H](C)O)NC1=O (YITNCG[Orn][X1]-NH2; linker N-5 via X2)
			0.6	CC[C@H](C)[C@@H]1NC(=O)[C@H](Cc2ccc(O)cc2)NC(=O)CC2(CCCCC2)SSC[C@@H](C(=O)N2CCC[C@H]2C(=O)N[C@@H](CCCN)C(=O)N[C@@H](Cc2ccc(N=[N+]=[N-])c(I)c2)C(N)=O)NC(=O)[C@H](CC(N)=O)NC(=O)[C@H]([C@@H](C)O)NC1=O (YITNCP[Orn][X1]-NH2; linker N-5 via X2)
